This note sets out measurements from patent US10988478B1, “Pyrazolo[1,5a]pyrimidine derivatives as IRAK4 modulators” (Genentech, Inc., priority 2015, dated 2021).

Chain of human IRAK4 (Q9NWZ3 whole entry, the tested form may be a part): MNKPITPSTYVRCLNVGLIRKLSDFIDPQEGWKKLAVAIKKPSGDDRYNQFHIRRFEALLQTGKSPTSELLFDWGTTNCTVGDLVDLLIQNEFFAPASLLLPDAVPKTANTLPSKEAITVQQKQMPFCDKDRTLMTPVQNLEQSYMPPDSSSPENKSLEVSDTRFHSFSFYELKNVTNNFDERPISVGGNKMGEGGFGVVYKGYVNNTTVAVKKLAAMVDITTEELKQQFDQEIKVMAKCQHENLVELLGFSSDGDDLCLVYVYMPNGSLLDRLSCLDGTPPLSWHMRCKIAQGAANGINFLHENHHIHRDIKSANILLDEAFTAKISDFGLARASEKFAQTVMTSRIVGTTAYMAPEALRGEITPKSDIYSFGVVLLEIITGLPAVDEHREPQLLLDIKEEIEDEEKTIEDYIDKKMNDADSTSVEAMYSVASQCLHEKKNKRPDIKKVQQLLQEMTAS

The target of the assay is human IRAK4 (Homo sapiens (Human), UniProt Q9NWZ3). Kind of assay: IRAK4 kinase inhibition, Transcreener fluorescence polarization ADP assay. In kind it is biochemical. As to conditions: recombinant full-length His6-IRAK4; 125 uM ATP; 90 min; Ki computed using ATP Km 642 uM. The procedure:
Compounds were assayed for inhibition of human IRAK4 and IRAK1 catalytic activity using recombinant enzyme produced from insect cells. Full-length IRAK4 protein, carrying an N-terminal His6-Tag, was obtained from Life Technologies (Carlsbad, Calif., USA). The IRAK1 construct was produced internally and was comprised of IRAK1 residues Arg194 to Ser712, preceded by an NH2-terminal His6 tag and the coding sequence for glutathione-S-transferase.
For `C[C@]1(C(F)(F)F)Cc2cc(NC(=O)c3cnn4cccnc34)c(N3CCOCC3)cc2O1` [Example 76, (R)—N-(2-Methyl-6-morpholino-2-(trifluoromethyl)-2,3-dihydrobenzofuran-5-yl)pyrazolo[1,5-a]pyrimidine-3-carboxamide], the Ki is 25 nM. With `C[C@@]1(C(F)(F)F)Cc2cc(NC(=O)c3cnn4cccnc34)c(N3CCOCC3)cc2O1` [Example 77, (S)—N-(2-methyl-6-morpholino-2-(trifluoromethyl)-2,3-dihydrobenzofuran-5-yl)pyrazolo[1,5-a]pyrimidine-3-carboxamide] the figure was 13 nM.

Consider `C[C@]1(CO)Cc2cc(NC(=O)c3cnn4cccnc34)c(N3CCOCC3)c(Cl)c2O1` [Example 80, (R)—N-(7-Chloro-2-(hydroxymethyl)-2-methyl-6-morpholino-2,3-dihydrobenzofuran-5-yl)pyrazolo[1,5-a]pyrimidine-3-carboxamide], for which the Ki came out at 34 nM. As for `C[C@@]1(CO)Cc2cc(NC(=O)c3cnn4cccnc34)c(N3CCOCC3)c(Cl)c2O1` [Example 81, (S)—N-(7-chloro-2-(hydroxymethyl)-2-methyl-6-morpholino-2,3-dihydrobenzofuran-5-yl)pyrazolo[1,5-a]pyrimidine-3-carboxamide], the figure is 100 nM; as for `CC1(C)COc2cc(N3CCOCC3)c(NC(=O)c3cnn4cccnc34)cc2N1` [Example 82, N-(3,3-Dimethyl-7-morpholino-3,4-dihydro-2H-benzo[b][1,4]oxazin-6-yl)pyrazolo[1,5-a]pyrimidine-3-carboxamide], 190 nM; as for `Cc1c2c(cc(NC(=O)c3cnn4cccnc34)c1N1CCOCC1)C[C@](C)(CO)O2` [Example 83, (R)—N-(2-(Hydroxymethyl)-2,7-dimethyl-6-morpholino-2,3-dihydrobenzofuran-5-yl)pyrazolo[1,5-a]pyrimidine-3-carboxamide], 62 nM. As for `Cc1c2c(cc(NC(=O)c3cnn4cccnc34)c1N1CCOCC1)C[C@@](C)(CO)O2` [Example 84, (S)—N-(2-(hydroxymethyl)-2,7-dimethyl-6-morpholino-2,3-dihydrobenzofuran-5-yl)pyrazolo[1,5-a]pyrimidine-3-carboxamide], the figure is 24 nM. In the case of `CC(=O)c1cnc2c(C(=O)Nc3cc4c(cc3N3CCOCC3)O[C@@](C)(CO)C4)cnn2c1` [Example 85, (R)-6-Acetyl-N-(2-(hydroxymethyl)-2-methyl-6-morpholino-2,3-dihydrobenzofuran-5-yl)pyrazolo[1,5-a]pyrimidine-3-carboxamide], the Ki came to 17 nM. As for `CC(=O)c1cnc2c(C(=O)Nc3cc4c(cc3N3CCOCC3)O[C@](C)(CO)C4)cnn2c1` [Example 86, (S)-6-Acetyl-N-(2-(hydroxymethyl)-2-methyl-6-morpholino-2,3-dihydrobenzofuran-5-yl)pyrazolo[1,5-a]pyrimidine-3-carboxamide], the figure is 49 nM.

Consider `C[C@]1(CO)Cc2cc(NC(=O)c3cnn4cccnc34)c(N3CCN(CCO)CC3)cc2O1` [Example 87, N-[(2R)-6-[4-(2-Hydroxyethyl)piperazin-1-yl]-2-(hydroxymethyl)-2-methyl-3H-benzofuran-5-yl]pyrazolo[1,5-a]pyrimidine-3-carboxamide], for which the Ki was 19 nM. With `C[C@@]1(CO)Cc2cc(NC(=O)c3cnn4cccnc34)c(N3CCN(CCO)CC3)cc2O1` [Example 88, N-[(2S)-6-[4-(2-Hydroxyethyl)piperazin-1-yl]-2-(hydroxymethyl)-2-methyl-3H-benzofuran-5-yl]pyrazolo[1,5-a]pyrimidine-3-carboxamide] the figure was 7.6 nM. In the case of `CC1(C)Cc2cc(NC(=O)c3cnn4cccnc34)c(C3CCN(CC(F)F)CC3)cc2O1` [Example 89, N-[6-[1-(2,2-Difluoroethyl)-4-piperidyl]-2,2-dimethyl-3H-benzofuran-5-yl]pyrazolo[1,5-a]pyrimidine-3-carboxamide], the Ki amounted to 26 nM. Turning to `CC1(C)Cc2cc(NC(=O)c3cnn4cccnc34)c(C3CCN(CC(F)(F)F)CC3)cc2O1` [Example 90, N-[2,2-Dimethyl-6-[1-(2,2,2-trifluoroethyl)-4-piperidyl]-3H-benzofuran-5-yl]pyrazolo[1,5-a]pyrimidine-3-carboxamide], the Ki was determined as 43 nM. As for `CC1(C)Cc2cc(NC(=O)c3cnn4cc(C(F)F)cnc34)c(N3CCOCC3)cc2O1` [Example 91, 6-(Difluoromethyl)-N-(2,2-dimethyl-6-morpholino-3H-benzofuran-5-yl)pyrazolo[1,5-a]pyrimidine-3-carboxamide], the figure is 39 nM; as for `CC1(C)Cc2cc(NC(=O)c3cnn4cccnc34)c(N3CC[C@](C)(CO)C3)cc2O1` [Example 94, (S)—N-(6-(3-(hydroxymethyl)-3-methylpyrrolidin-1-yl)-2,2-dimethyl-2,3-dihydrobenzofuran-5-yl)pyrazolo[1,5-a]pyrimidine-3-carboxamide], 29 nM; as for `CC1(C)Cc2cc(NC(=O)c3cnn4cccnc34)c(N3CC[C@@](C)(CO)C3)cc2O1` [Example 95, (R)—N-(6-(3-(hydroxymethyl)-3-methylpyrrolidin-1-yl)-2,2-dimethyl-2,3-dihydrobenzofuran-5-yl)pyrazolo[1,5-a]pyrimidine-3-carboxamide], 25 nM.

With `CC[C@@]1(C)Cc2cc(NC(=O)c3cnn4cccnc34)c(N3CCOCC3)cc2O1` [Example 96, (S)—N-(2-ethyl-2-methyl-6-morpholino-2,3-dihydrobenzofuran-5-yl)pyrazolo[1,5-a]pyrimidine-3-carboxamide], the Ki is 14 nM. With `C[C@]1(CO)Cc2cc(NC(=O)c3cnn4cccnc34)c(N3CCN(CC(F)F)CC3)cc2O1` [Example 98, N-[(2R)-6-[4-(2,2-Difluoroethyl)piperazin-1-yl]-2-(hydroxymethyl)-2-methyl-3H-benzofuran-5-yl]pyrazolo[1,5-a]pyrimidine-3-carboxamide] the figure was 2.8 nM; with `C[C@@]1(CO)Cc2cc(NC(=O)c3cnn4cccnc34)c(N3CCN(CC(F)F)CC3)cc2O1` [Example 99, N-[(2S)-6-[4-(2,2-difluoroethyl)piperazin-1-yl]-2-(hydroxymethyl)-2-methyl-3H-benzofuran-5-yl]pyrazolo[1,5-a]pyrimidine-3-carboxamide], 3.3 nM; with `CC1(C)Cc2cc(NC(=O)c3cnn4cccnc34)c(N3CCc4cncn4CC3)cc2O1` [Example 101, N-[2,2-dimethyl-6-(5,6,8,9-tetrahydroimidazo[1,5-d][1,4]diazepin-7-yl)-3H-benzofuran-5-yl]pyrazolo[1,5-a]pyrimidine-3-carboxamide], 32 nM. With `CC1(C)Cc2cc(NC(=O)c3cnn4cccnc34)c(-n3cnc(CO)c3)cc2O1` [Example 102, N-[6-[4-(hydroxymethyl)imidazo 1-1-yl]-2,2-dimethyl-3H-benzofuran-5-yl]pyrazolo[1,5-a]pyrimidine-3-carboxamide] the figure was 190 nM; with `CC1(C)Cc2cc(NC(=O)c3cnn4cccnc34)c(-n3ccnc3)cc2O1` [Example 103, N-(6-imidazol-1-yl-2,2-dimethyl-3H-benzofuran-5-yl)pyrazolo[1,5-a]pyrimidine-3-carboxamide], 88 nM; with `CC1CCCN1c1cc2c(cc1NC(=O)c1cnn3cccnc13)CC(C)(C)O2` (stereo not drawn) [Example 104, N-[2,2-dimethyl-6-(2-methylpyrrolidin-1-yl)-3H-benzofuran-5-yl]pyrazolo[1,5-a]pyrimidine-3-carboxamide], 22 nM. As for `CC1(O)CN(c2cc3c(cc2NC(=O)c2cnn4cccnc24)CC(C)(C)O3)C1` [Example 105, N-[6-(3-hydroxy-3-methyl-azetidin-1-yl)-2,2-dimethyl-3H-benzofuran-5-yl]pyrazolo[1,5-a]pyrimidine-3-carboxamide], the figure is 720 nM; as for `CC1(C)Cc2cc(NC(=O)c3cnn4cccnc34)c(N3CCC4(CCOC4)CC3)cc2O1` [Example 106, N-(2,2-dimethyl-6-(2-oxa-8-azaspiro[4.5]decan-8-yl)-2,3-dihydrobenzofuran-5-yl)pyrazolo[1,5-a]pyrimidine-3-carboxamide], 2.4 nM; as for `CC1(C)Cc2cc(NC(=O)c3cnn4cccnc34)c(N3CCC4(COC4)C3)cc2O1` [Example 107, N-(2,2-dimethyl-6-(2-oxa-6-azaspiro[3.4]octan-6-yl)-2,3-dihydrobenzofuran-5-yl)pyrazolo[1,5-a]pyrimidine-3-carboxamide], 79 nM. Consider `CC1(C)Cc2cc(NC(=O)c3cnn4cccnc34)c(N3CCC4(CCOC4)C3)cc2O1` (stereo not drawn) [Example 108, N-(2,2-dimethyl-6-(2-oxa-7-azaspiro[4.4]nonan-7-yl)-2,3-dihydrobenzofuran-5-yl)pyrazolo[1,5-a]pyrimidine-3-carboxamide], for which the Ki was determined as 79 nM. With `CC1(C)Cc2cc(NC(=O)c3cnn4cccnc34)c(N3CCC4(CCCC4O)CC3)cc2O1` (stereo not drawn) [Example 109, N-(6-(1-hydroxy-8-azaspiro[4.5]decan-8-yl)-2,2-dimethyl-2,3-dihydrobenzofuran-5-yl)pyrazolo[1,5-a]pyrimidine-3-carboxamide] the figure was 4.2 nM; with `CC1(C)Cc2cc(NC(=O)c3cnn4cccnc34)c(N3CCC4(CC3)CC(O)C4)cc2O1` [Example 110, N-(6-(2-hydroxy-7-azaspiro[3.5]nonan-7-yl)-2,2-dimethyl-2,3-dihydrobenzofuran-5-yl)pyrazolo[1,5-a]pyrimidine-3-carboxamide], 2.5 nM. As for `CC1(C)Cc2cc(NC(=O)c3cnn4cccnc34)c(N3CCC4(CC3)CNC4=O)cc2O1` [Example 111, N-[2,2-dimethyl-6-(3-oxo-2,7-diazaspiro[3.5]nonan-7-yl)-3H-benzofuran-5-yl]pyrazolo[1,5-a]pyrimidine-3-carboxamide], the figure is 4.8 nM.

The term Ki denotes the equilibrium dissociation constant of an inhibitor or competing ligand from its target.
